Source: US20110015208A1, “PHARMACEUTICAL COMPOSITIONS CONTAINING DOPAMINE RECEPTOR LIGANDS AND METHODS OF TREATMENT USING DOPAMINE RECEPTOR LIGANDS” (priority 2007, published 2011)
Entries after “also recorded” stand apart in the source; their conditions may differ. Where a name gives a salt, the structure may show the parent alone.

Key:
[1] = system: extracellular serotonin (5-HT) in the frontal cortex; experiment: Dual-probe microdialysis, serotonin in frontal cortex of freely-moving rats; assay type: in vivo, rat
Experimental: (§1) A dual-probe microdialysis study was conducted to determine the effects of oral administration of cariprazine hydrochloride, alone and in combination with escitalopram oxalate (administered subcutaneously), on extracellular concentrations of acetylcholine (ACh), dopamine (DA) and serotonin (5-HT) in the frontal cortex of freely-moving rats.
(§2) Experiments were carried out in male Sprague Dawley rats (250-350 g body weight; Charles River, UK). Animals were housed in groups of six on a 12 h/12 h light/dark cycle (lights on at 07.30 h), at an ambient temperature of 21±2° C. and 55±20% humidity. Food and water were available ad libitum. Animals were allowed to acclimatise to these conditions for at least 5 days prior to the study.
(§3) Rats were anaesthetised with isoflurane (5% to induce, 2% to maintain) in an O2/N2O (1 litre/min each) mixture delivered via an anaesthetic unit (St Bernard Medical Services, UK). […] Samples were measured from the same side in each rat (e.g. left probe was used to measure ACh and right probe was used to measure DA and 5-HT). […]

[2] = system: extracellular dopamine (DA) in the frontal cortex; experiment: Dual-probe microdialysis, dopamine in frontal cortex of freely-moving rats; assay type: in vivo, rat
Experimental: as §1, §2, §3

[3] = system: chronic mild stress (CMS) model of depression; experiment: Chronic mild stress (CMS) model of depression, sucrose consumption (Example 3); assay type: in vivo, rat; details: for sucrose consumption in stressed animals compared to vehicle: 5 weeks; for time until increase in sucrose intake reached statistical significance vs Week 0: stressed animals
From the text: Similar to the study described in Example 2, additional studies were undertaken to further evaluate the antidepressant effect of cariprazine hydrochloride, administered alone, or in combination with escitalopram oxalate, in a chronic mild stress model of depression
In the chronic mild stress (CMS) model, rats subjected to a variety of mild stressors for a prolonged period of time show a substantial decrease in their responsiveness to rewarding stimuli. This deficit is usually monitored by a decrease in the consumption of a 1% sucrose solution, but can also be seen in other tests, such as place preference conditioning or intracranial self-stimulation. The subsensitivity to reward appears to reflect anhedonia (inability to experience pleasure), which is a core symptom of major depressive disorders. Clinically approved antidepressants have shown activity in this animal model by reversing the effects of CMS on sucrose consumption. See, e.g., Sanchez C, Gruca P, Papp M, Behavioural Pharmacology 14, 465-470, 2003.
Male Wistar rats (Charles River, Germany) were brought into the laboratory two months before the start of the experiment. Except as described below, the animals were singly housed with food and water freely available, and were maintained on a 12-h light/dark and in a constant temperature (22±2° C.) and humidity (50±5%) conditions.
The animals were first trained to consume a 1% sucrose solution; training consisted of nine 1 h baseline tests in which sucrose was presented, in the home cage, following 14 h food and water deprivation. The sucrose intake was measured by weighing pre-weighed bottles containing the sucrose solution, at the end of the test. Subsequently, sucrose consumption was monitored, under similar conditions, at weekly intervals throughout the whole experiment.
On the basis of their sucrose intakes in the final baseline test, the animals were divided into two matched groups. One group of animals was subjected to the chronic mild stress procedure for a period of 7 consecutive weeks. Each week of stress regime consisted of: two periods of food or water deprivation, two periods of 45 degree cage tilt, two periods of intermittent illumination (lights on and off every 2 h), two periods of soiled cage (250 ml water in sawdust bedding), one period of paired housing, two periods of low intensity stroboscopic illumination (150 flashes/min), and three periods of no stress. All stressors were 10-14 h of duration and were applied individually and continuously, day and night. Control animals were housed in separate rooms and had no contact with the stressed animals. They were deprived of food and water for 14 h preceding each sucrose test, but otherwise food and water were freely available in the home cage.

[4] = system: d-amphetamine/chlordiazepoxide mixture (AMPH/CDP)-induced hyperactivity in mice; experiment: d-Amphetamine/chlordiazepoxide (AMPH/CDP) hyperactivity test (Example 4B); assay type: in vivo, mouse; details: for Total Distance Traveled [mean ± SEM]: test condition AMPH/CDP
Experimental: Cariprazine hydrochloride and escitalopram oxalate were evaluated for anti-manic effects using the amphetamine/chlordiazepoxide (AMPH/CDP) hyperactivity test.
Male C57B1/6J mice (8 weeks old) from Jackson Laboratories (Bar Harbor, Me.) were used in this study. Upon receipt, mice were assigned unique identification numbers (tail marked) and were group housed (4 mice/cage) in OPTI mouse ventilated cages. All animals remained housed in groups of four during the remainder of the study. During the period of acclimation, mice were examined on a regular basis, handled, and weighed to assure adequate health and suitability. Mice were maintained on a 12/12 light/dark cycle. The room temperature was maintained between 20 and 23° C. with a relative humidity maintained between 30% and 70%. Chow and water were provided ad libitum for the duration of the study. In each test, animals were randomly assigned across treatment groups.
d-Amphetamine sulfate (Sigma, 4.0 mg/kg) and chlordiazepoxide (CDP; Sigma, 2.5 mg/kg) were dissolved in sterile water and were administered intraperitoneally at a dose volume of 10 ml/kg.
Distance traveled is measured by consecutive beam breaks.
Data was analyzed by analysis of variance (ANOVA) followed by Fisher PLSD post-hoc analysis when appropriate. An effect was considered significant if p<0.05. Outliers that fell above and below two standard deviations from the mean were removed from the final analysis.

[5] = cariprazine hydrochloride alone 0.03, 0.1 and 0.3 mg/kg po
[6] = escitalopram oxalate 1.0 mg/kg sc
[7] = escitalopram oxalate 2 mg/kg IP once daily

CN(C)C(=O)N[C@H]1CC[C@H](CCN2CCN(c3cccc(Cl)c3Cl)CC2)CC1 [Cariprazine hydrochloride, trans-4-{2-[4-(2,3-dichlorophenyl)-piperazin-1-yl]-ethyl}-N,N-dimethylcarbamoyl-cyclohexylamine hydrochloride]
efflux of 5-HT in the frontal cortex [1, 5]: no significant effect
efflux of DA in the frontal cortex [2, 5]: no significant effect
sucrose consumption in stressed animals compared to vehicle ([3]; cariprazine hydrochloride 0.01 mg/kg alone, IP once daily): significantly decreased
sucrose consumption in stressed animals compared to vehicle ([3]; cariprazine hydrochloride 0.03 mg/kg alone, IP once daily): gradually increased
time until increase in sucrose intake reached statistical significance vs Week 0 ([3]; cariprazine hydrochloride 0.03 mg/kg alone, IP once daily, hydrochloride): after four weeks of treatment; also recorded: three weeks
sucrose consumption in stressed animals compared to vehicle ([3]; cariprazine hydrochloride 0.065 mg/kg IP once daily): gradually increased
time until increase in sucrose intake reached statistical significance vs Week 0 ([3]; cariprazine hydrochloride 0.065 mg/kg IP once daily, hydrochloride): after the first week of treatment; also recorded: following the first week of administration
magnitude of action relative to escitalopram oxalate ([3]; cariprazine hydrochloride alone, full recovery at the end of treatment period): comparable to that of escitalopram oxalate
effect on enhanced locomotor activity produced by the CDP+amphetamine mixture ([4]; cariprazine hydrochloride 0.10 mg/kg oral): significantly attenuated
Total Distance Traveled [mean ± SEM] ([4]; cariprazine HCl 0.03 mg/kg oral): 32628 ± 2510 cm/60 min
Total Distance Traveled [mean ± SEM] ([4]; cariprazine HCl 0.10 mg/kg oral): 22594 ± 2838 cm/60 min

CN(C)CCC[C@@]1(c2ccc(F)cc2)OCc2cc(C#N)ccc21 [Escitalopram oxalate, 1-[3-(dimethyl-amino)propyl]-1-(p-fluorophenyl)-5-phthalancarbonitrile]
basal 5-HT levels [1, 6]: no effect
basal DA levels [2, 6]: no effect
sucrose consumption in stressed animals compared to vehicle [3, 7]: gradually increased; also recorded: fully reversed
time until increase in sucrose intake reached statistical significance vs Week 0 [3, 7]: after three weeks of treatment
effect on mixture-induced locomotor activity ([4]; escitalopram oxalate alone, either dose tested (0.10 and 0.50 mg/kg oral)): no significant effect
Total Distance Traveled [mean ± SEM] ([4]; escitalopram oxalate 0.10 mg/kg oral): 39700 ± 3477 cm/60 min
Total Distance Traveled [mean ± SEM] ([4]; escitalopram oxalate 0.50 mg/kg oral): 40881 ± 3123 cm/60 min
